Laboratory results published in PubChem BioAssay AID1963985 (Molecular Pharmacology Branch, DTP, NCI, 2024).

Tested on: 252836-082-R-J2-PDC tumor spheroids, viability
Assay: Anticancer human tumor 252836-082-R-J2-PDC patient-derived head and neck squamous cell carcinoma cell line growth inhibition [PI3K]
Details: spheroids with HUVEC and MSC; for viability, T/C: stronger effect = lower value
Excerpt: Combinatorial screen of targeted agents with the PI3K inhibitors inavolisib, alpelisib, duvelisib, and copanlisib in multi-cell type tumor spheroids
A high-throughput screen of multi-cell type tumor spheroids was designed to identify active combinations of targeted small molecules and PI3K pathway inhibitors. Complex spheroids include a stromal component modeled by human endothelial cells (HUVEC) and fibroblasts modeled by human mesenchymal stem cells (MSCs). The concentration ranges selected for each drug and investigational agent were based upon clinically achievable concentrations if the clinical Cmax of the agent was known.
Compounds. The drugs and investigational agents: inavolisib (NSC800729), alpelisib (NSC765974), duvelisib (NSC772469), copanlisib (NSC816437), ipatasertib (NSC767898), afuresertib (NSC778305), talazoparib (NSC767125), sapanisertib (NSC764658), selumetinib (NSC741078), tovorafenib (DAY101, NSC766906), vemurafenib (NSC761431), ravoxertinib (NSC781343), sotorasib (NSC818433), MRTX1133 (NSC 836407), abemaciclib (NSC 768073), palbociclib (NSC758247), venetoclax (NSC 766270), SY5609 (NSC837396), enzalutamide (NSC755605), and darolutamide (NSC825331), were obtained from the National Cancer Institute (NCI) Developmental Therapeutics Program Chemical Repository. The FDA-approved anticancer drug set is available from the NCI Developmental Therapeutics Program. […] The stock solutions were prepared in dimethyl sulfoxide (DMSO, Sigma-Aldrich, St. Louis, MO, cat. D2650) at 800-fold the tested concentration and stored at -70 degrees C prior to their use. All drugs and investigational agents were tested over a range starting from a high concentration at or near the clinical Cmax and decreasing in half-log increments. If the clinical Cmax for an agent had not been determined, the highest concentration tested was 10 microM.
Cell Culture. All cells were maintained in an incubator at 37 degrees C and 5% CO2 with 95% humidity. The PDC lines were cultured according to standard operating procedures established by the NCI PDMR (https://pdmr.cancer.gov/sops/default.htm). All PDCs were thawed and cultured in Matrigel-coated flasks prepared with a working solution of 1X Ham's F-12 nutrient mix, without supplementation (Invitrogen, Waltham, MA, cat. 11765054), 100 U/mL penicillin-streptomycin (Invitrogen, cat. 15140122), and 2.5% Matrigel (Corning Inc., Corning, NY, cat. 354248) for the first three passages. The 354836-022-R-J1-PDC, 475296-252-R-J1-PDC, and 997726-040-R-J2-PDC lines were cultured in 6A media, which includes advanced DMEM/F-12 (Thermo Fisher Scientific, cat. 12634028), 10 mM HEPES (Thermo Fisher Scientific, cat. 15630080), 1X GlutaMAX supplement (Thermo Fisher Scientific, cat. 35050061), 0.1 mg/mL primocin (InvivoGen, San Diego, CA, cat. ant-pm-2), 10% defined fetal bovine serum, heat inactivated (HyClone Laboratories Inc., Logan, UT, cat. SH30070.03HI), 50% L-WRN conditioned media (ATCC, cat. CRL-3276), 1.25 mM N-Acetyl-L-cysteine (Sigma-Aldrich, cat. A9165), 10 mM nicotinamide (Sigma-Aldrich, cat. N0636), 1X B-27 supplement (Thermo Fisher Scientific, cat. 17504044), 1X N-2 supplement (Thermo Fisher Scientific, cat. 17502048), and 10 microM Y-27632 dihydrochloride (Tocris Bioscience, Bristol, United Kingdom, cat. 1254). The 624824-186-R-J2-PDC line was cultured in 6C/Colon 1B media, which includes all 6A media components plus 50 ng/mL human EGF recombinant protein (Thermo Fisher Scientific, cat. PHG0311). […]

[1] = curve of first compound, second compound 0.0316 µM
[2] = curve of first compound, second compound 0.1 µM
[3] = curve of first compound, second compound 0.316 µM
[4] = curve of first compound, second compound 1 µM
[5] = curve of first compound, second compound 3.16 µM
[6] = curve of first compound, second compound 10 µM
[7] = second compound 0.0316 µM, first compound 0.000316 µM
[8] = second compound 0.0316 µM, first compound 0.001 µM
[9] = second compound 0.0316 µM, first compound 0.00316 µM
[10] = second compound 0.0316 µM, first compound 0.01 µM
[11] = second compound 0.0316 µM, first compound 0.0316 µM
[12] = second compound 0.0316 µM, first compound 0.1 µM
[13] = second compound 0.1 µM, first compound 0.000316 µM
[14] = second compound 0.1 µM, first compound 0.001 µM
[15] = second compound 0.1 µM, first compound 0.00316 µM
[16] = second compound 0.1 µM, first compound 0.01 µM
[17] = second compound 0.1 µM, first compound 0.0316 µM
[18] = second compound 0.1 µM, first compound 0.1 µM
[19] = second compound 0.316 µM, first compound 0.000316 µM
[20] = second compound 0.316 µM, first compound 0.001 µM
[21] = second compound 0.316 µM, first compound 0.00316 µM
[22] = second compound 0.316 µM, first compound 0.01 µM
[23] = second compound 0.316 µM, first compound 0.0316 µM
[24] = second compound 0.316 µM, first compound 0.1 µM
[25] = second compound 1 µM, first compound 0.000316 µM
[26] = second compound 1 µM, first compound 0.001 µM
[27] = second compound 1 µM, first compound 0.00316 µM
[28] = second compound 1 µM, first compound 0.01 µM
[29] = second compound 1 µM, first compound 0.0316 µM
[30] = second compound 1 µM, first compound 0.1 µM
[31] = second compound 3.16 µM, first compound 0.000316 µM
[32] = second compound 3.16 µM, first compound 0.001 µM
[33] = second compound 3.16 µM, first compound 0.00316 µM
[34] = second compound 3.16 µM, first compound 0.01 µM
[35] = second compound 3.16 µM, first compound 0.0316 µM
[36] = second compound 3.16 µM, first compound 0.1 µM
[37] = second compound 10 µM, first compound 0.000316 µM
[38] = second compound 10 µM, first compound 0.001 µM
[39] = second compound 10 µM, first compound 0.00316 µM
[40] = second compound 10 µM, first compound 0.01 µM
[41] = second compound 10 µM, first compound 0.0316 µM
[42] = second compound 10 µM, first compound 0.1 µM
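Note: spheroids exposed to agents for seven days before readout.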
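Throughout, for viability, T/C: percent of vehicle DMSO control viability so 100% = untreated growth.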

With `CC(C)n1nc(-c2ccc3oc(N)nc3c2)c2c(N)ncnc21` + Cc1nc(NC(=O)N2CCCC2C(N)=O)sc1-c1ccnc(C(C)(C)C(F)(F)F)c1 the IC50 [1] was 0.0322 µM, the IC50 [2] was 0.0276 µM and the IC50 [3] was 0.0212 µM. It also gave an IC50 [4] of 0.0126 µM, an IC50 [5] of less than 0.000316 µM and an IC50 [6] of less than 0.000316 µM. For the same compound, the viability, T/C [7] was 84.3%, the viability, T/C [8] was 76% and the viability, T/C [9] was 98%. The viability, T/C [10] was 71.5%, the viability, T/C [11] was 51.7% and the viability, T/C [12] was 21.3%. The viability, T/C [13] was 83.8%, the viability, T/C [14] was 83.1% and the viability, T/C [15] was 79.8%. For the same compound, the viability, T/C [16] was 63.9%, the viability, T/C [17] was 49% and the viability, T/C [18] was 23%. The viability, T/C [19] was 82.1%, the viability, T/C [20] was 73.1% and the viability, T/C [21] was 75.8%. The viability, T/C [22] was 59.6%, the viability, T/C [23] was 44.4% and the viability, T/C [24] was 20.7%. The viability, T/C [25] was 56.5%, the viability, T/C [26] was 53.4% and the viability, T/C [27] was 61.6%. For the same compound, the viability, T/C [28] was 48.7%, the viability, T/C [29] was 42.6% and the viability, T/C [30] was 19.5%. For the same compound, the viability, T/C [31] was 43.2%, the viability, T/C [32] was 55.2% and the viability, T/C [33] was 47.5%. The viability, T/C [34] was 40%, the viability, T/C [35] was 28.6% and the viability, T/C [36] was 17.2%. The viability, T/C [37] was 33.2%, the viability, T/C [38] was 31.1% and the viability, T/C [39] was 29.6%. It also gave a viability, T/C [40] of 35.4%, a viability, T/C [41] of 18.8% and a viability, T/C [42] of 8.12%.
`Cn1ncc(Cl)c1-c1cc(C(=O)NC(CN)Cc2cccc(F)c2)sc1Cl` (stereo unspecified) was tested, and the viability, T/C (compound 0.0316 µM) was 84.6% [middle of 4 runs], the viability, T/C (compound 0.1 µM) was 85% [middle of 4 runs] and the viability, T/C (compound 0.316 µM) was 66.9% [middle of 4 runs]. The viability, T/C (compound 1 µM) was 42.4% [middle of 4 runs], the viability, T/C (compound 3.16 µM) was 30.8% [middle of 4 runs] and the viability, T/C (compound 10 µM) was 12.7% [middle of 4 runs]. For the same compound, the IC50 (curve of compound) was 684 nM [middle of 4 runs].
Work on `CC(=O)c1c(C)c2cnc(Nc3ccc(N4CCNCC4)cn3)nc2n(C2CCCC2)c1=O` + CC(Nc1ncnc2nc[nH]c12)c1cc2cccc(Cl)c2c(=O)n1-c1ccccc1 yielded an IC50 [1] greater than 0.1 µM, an IC50 [2] greater than 0.1 µM and an IC50 [3] greater than 0.1 µM. For the same compound, the IC50 [4] was greater than 0.1 µM, the IC50 [5] was greater than 0.1 µM and the IC50 [6] was greater than 0.1 µM. For the same compound, the viability, T/C [7] was 99.4%, the viability, T/C [8] was 92.6% and the viability, T/C [9] was 93%. It also gave a viability, T/C [10] of 89.1%, a viability, T/C [11] of 91.8% and a viability, T/C [12] of 93.2%. It also gave a viability, T/C [13] of 105%, a viability, T/C [14] of 89.6% and a viability, T/C [15] of 76.6%. For the same compound, the viability, T/C [16] was 83.3%, the viability, T/C [17] was 83% and the viability, T/C [18] was 75.4%. The viability, T/C [19] was 114%, the viability, T/C [20] was 91.4% and the viability, T/C [21] was 86.9%. For the same compound, the viability, T/C [22] was 93.7%, the viability, T/C [23] was 88.7% and the viability, T/C [24] was 96.6%. For the same compound, the viability, T/C [25] was 81.9%, the viability, T/C [26] was 72.4% and the viability, T/C [27] was 76.8%. The viability, T/C [28] was 93.9%, the viability, T/C [29] was 79.8% and the viability, T/C [30] was 79.2%. It also gave a viability, T/C [31] of 91.6%, a viability, T/C [32] of 87.9% and a viability, T/C [33] of 66.1%. The viability, T/C [34] was 74.2%, the viability, T/C [35] was 73.7% and the viability, T/C [36] was 71.6%. It also gave a viability, T/C [37] of 57.5%, a viability, T/C [38] of 56.3% and a viability, T/C [39] of 69.2%. For the same compound, the viability, T/C [40] was 61.1%, the viability, T/C [41] was 71.4% and the viability, T/C [42] was 60.6%.
